Assay results as given in PubChem BioAssay (NCI).
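Method: 48-hour compound exposure of cells in 96-well plates, five concentrations, linear interpolation of endpoints. Abbreviation: GI50, concentration required for 50% inhibition of growth. TGI: total growth inhibition.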

How the values were obtained:
Experiment in all cases: DTP human tumour cell line panel, 48 h
SN12C renal = test system: SN12C renal
SK-MEL-28 melanoma = test system: SK-MEL-28 melanoma
SK-MEL-2 melanoma = test system: SK-MEL-2 melanoma
ACHN renal = test system: ACHN renal
NCI-H226 lung = test system: NCI-H226 lung
SNB-75 CNS = test system: SNB-75 CNS
COLO 205 colon = test system: COLO 205 colon
NCI-H23 lung = test system: NCI-H23 lung
DU-145 prostate = test system: DU-145 prostate
786-0 renal = test system: 786-0 renal
MOLT-4 leukemia = test system: MOLT-4 leukemia
CCRF-CEM leukemia = test system: CCRF-CEM leukemia
LOX IMVI melanoma = test system: LOX IMVI melanoma
SNB-19 CNS = test system: SNB-19 CNS
T-47D breast = test system: T-47D breast
EKVX NSCLC = test system: EKVX NSCLC
A498 renal = test system: A498 renal
HOP-92 NSCLC = test system: HOP-92 NSCLC
SK-MEL-5 melanoma = test system: SK-MEL-5 melanoma
MDA-MB-435 = test system: MDA-MB-435
NCI-H460 lung = test system: NCI-H460 lung
SF-295 CNS = test system: SF-295 CNS
OVCAR-4 ovarian = test system: OVCAR-4 ovarian
UACC-257 melanoma = test system: UACC-257 melanoma
HS 578T breast = test system: HS 578T breast
HCC-2998 colon = test system: HCC-2998 colon
PC-3 prostate = test system: PC-3 prostate
RPMI-8226 leukemia = test system: RPMI-8226 leukemia
SF-539 CNS = test system: SF-539 CNS
NCI/ADR-RES ovarian = test system: NCI/ADR-RES ovarian
UO-31 renal = test system: UO-31 renal
HOP-62 NSCLC = test system: HOP-62 NSCLC
BT-549 breast = test system: BT-549 breast
OVCAR-8 ovarian = test system: OVCAR-8 ovarian
SF-268 CNS = test system: SF-268 CNS
UACC-62 melanoma = test system: UACC-62 melanoma
U251 CNS = test system: U251 CNS
IGROV1 ovarian = test system: IGROV1 ovarian
OVCAR-5 ovarian = test system: OVCAR-5 ovarian
HT29 colon = test system: HT29 colon
HCT-15 colon = test system: HCT-15 colon
M14 melanoma = test system: M14 melanoma
TK-10 renal = test system: TK-10 renal
OVCAR-3 ovarian = test system: OVCAR-3 ovarian
RXF 393 renal = test system: RXF 393 renal
SW-620 colon = test system: SW-620 colon
NCI-H522 lung = test system: NCI-H522 lung
HCT-116 colon = test system: HCT-116 colon
SK-OV-3 ovarian = test system: SK-OV-3 ovarian
CAKI-1 renal = test system: CAKI-1 renal
A549 NSCLC = test system: A549 NSCLC
K-562 leukemia = test system: K-562 leukemia
MDA-MB-231 breast = test system: MDA-MB-231 breast
MALME-3M melanoma = test system: MALME-3M melanoma
HL-60(TB) leukemia = test system: HL-60(TB) leukemia
KM12 colon = test system: KM12 colon
MCF7 breast = test system: MCF7 breast

## CCCCCCCCNCCC[C@@H](C)[C@H]1CC[C@H]2[C@@H]3[C@H](OCCCN)C[C@H]4C[C@H](OCCCN)CC[C@]4(C)[C@H]3C[C@H](OCCCN)[C@]12C
SN12C renal
  GI50: 1210 nM
  TGI: 5680 nM
SK-MEL-28 melanoma
  GI50: 776 nM
  TGI: 2780 nM
SK-MEL-2 melanoma
  GI50: 3750 nM
  TGI: > 31300 nM
ACHN renal
  GI50: 2020 nM
  TGI: 6410 nM
NCI-H226 lung
  GI50: 5210 nM
  TGI: 23600 nM
SNB-75 CNS
  GI50: 2520 nM
  TGI: 11600 nM
COLO 205 colon
  GI50: 2600 nM
  TGI: 7770 nM
NCI-H23 lung
  GI50: 1810 nM
  TGI: 5400 nM
DU-145 prostate
  GI50: 1140 nM
  TGI: 2350 nM
786-0 renal
  GI50: 1210 nM
  TGI: 3300 nM
MOLT-4 leukemia
  GI50: 3120 nM
  TGI: 9690 nM
CCRF-CEM leukemia
  GI50: 1890 nM
  TGI: 4270 nM
LOX IMVI melanoma
  GI50: 1570 nM
  TGI: 3540 nM
SNB-19 CNS
  GI50: 1690 nM
  TGI: 5240 nM
T-47D breast
  GI50: 3920 nM
  TGI: > 26700 nM
EKVX NSCLC
  GI50: 2010 nM
  TGI: 6650 nM
A498 renal
  GI50: 21300 nM
  TGI: 54500 nM
HOP-92 NSCLC
  GI50: 429 nM
  TGI: 8460 nM
SK-MEL-5 melanoma
  GI50: 2240 nM
  TGI: 6540 nM
MDA-MB-435
  GI50: 768 nM
  TGI: 2500 nM
NCI-H460 lung
  TGI: > 19800 nM
SF-295 CNS
  GI50: 993 nM
  TGI: 4430 nM
OVCAR-4 ovarian
  GI50: 8270 nM
  TGI: 29400 nM
UACC-257 melanoma
  GI50: 2890 nM
  TGI: 8640 nM
HS 578T breast
  GI50: 2430 nM
  TGI: 5590 nM
HCC-2998 colon
  GI50: 2040 nM
  TGI: 7000 nM
PC-3 prostate
  GI50: 5580 nM
  TGI: > 49300 nM
RPMI-8226 leukemia
  GI50: 1270 nM
  TGI: 3490 nM
SF-539 CNS
  GI50: 810 nM
  TGI: 2600 nM
NCI/ADR-RES ovarian
  GI50: 1930 nM
  TGI: 5270 nM
UO-31 renal
  GI50: 1490 nM
  TGI: 3720 nM
HOP-62 NSCLC
  GI50: 1530 nM
  TGI: 7160 nM
BT-549 breast
  GI50: 1430 nM
  TGI: 4350 nM
OVCAR-8 ovarian
  GI50: 1820 nM
  TGI: 4070 nM
SF-268 CNS
  GI50: 1500 nM
  TGI: 3700 nM
UACC-62 melanoma
  GI50: 1000 nM
  TGI: 3840 nM
U251 CNS
  GI50: 2230 nM
  TGI: 6320 nM
IGROV1 ovarian
  GI50: 1490 nM
  TGI: 3250 nM
OVCAR-5 ovarian
  GI50: 2260 nM
  TGI: 12500 nM
HT29 colon
  GI50: 1710 nM
  TGI: 7590 nM
HCT-15 colon
  GI50: 3390 nM
  TGI: 16900 nM
M14 melanoma
  GI50: 1640 nM
  TGI: 4870 nM
TK-10 renal
  GI50: 1790 nM
  TGI: 7360 nM
OVCAR-3 ovarian
  GI50: 5000 nM
  TGI: 21500 nM
RXF 393 renal
  GI50: 2220 nM
  TGI: 16400 nM
SW-620 colon
  GI50: 1720 nM
  TGI: 3850 nM
NCI-H522 lung
  GI50: 2480 nM
  TGI: 7160 nM
HCT-116 colon
  GI50: 870 nM
  TGI: 2610 nM
SK-OV-3 ovarian
  GI50: 4720 nM
  TGI: 21900 nM
CAKI-1 renal
  GI50: 3090 nM
  TGI: 15400 nM
A549 NSCLC
  GI50: 2430 nM
  TGI: 8810 nM
K-562 leukemia
  GI50: 2840 nM
  TGI: 11500 nM
MDA-MB-231 breast
  GI50: 983 nM
  TGI: 7110 nM

## C=C(C)CC1(O[Si](C)(C)C)C(=O)C(OCC)=C1OCC (centres undefined)
SN12C renal
  TGI: > 100000 nM
SK-MEL-28 melanoma
  TGI: > 100000 nM
SK-MEL-2 melanoma
  TGI: > 100000 nM
MALME-3M melanoma
  TGI: > 100000 nM
ACHN renal
  TGI: > 100000 nM
NCI-H226 lung
  TGI: > 100000 nM
SNB-75 CNS
  TGI: > 100000 nM
COLO 205 colon
  TGI: > 100000 nM
NCI-H23 lung
  TGI: > 100000 nM
DU-145 prostate
  TGI: > 100000 nM
786-0 renal
  TGI: > 100000 nM
MOLT-4 leukemia
  TGI: > 100000 nM
HL-60(TB) leukemia
  TGI: > 100000 nM
CCRF-CEM leukemia
  TGI: > 100000 nM
LOX IMVI melanoma
  TGI: > 100000 nM
SNB-19 CNS
  TGI: > 100000 nM
T-47D breast
  TGI: > 100000 nM
EKVX NSCLC
  TGI: > 100000 nM
A498 renal
  TGI: > 100000 nM
HOP-92 NSCLC
  TGI: > 100000 nM
SK-MEL-5 melanoma
  TGI: > 100000 nM
MDA-MB-435
  TGI: > 100000 nM
NCI-H460 lung
  TGI: > 100000 nM
SF-295 CNS
  TGI: > 100000 nM
OVCAR-4 ovarian
  TGI: > 100000 nM
UACC-257 melanoma
  TGI: > 100000 nM
HS 578T breast
  TGI: > 100000 nM
PC-3 prostate
  TGI: > 100000 nM
SF-539 CNS
  TGI: > 100000 nM
NCI/ADR-RES ovarian
  TGI: > 100000 nM
UO-31 renal
  TGI: > 100000 nM
HOP-62 NSCLC
  TGI: > 100000 nM
BT-549 breast
  TGI: > 100000 nM
OVCAR-8 ovarian
  TGI: > 100000 nM
SF-268 CNS
  TGI: > 100000 nM
KM12 colon
  TGI: > 100000 nM
UACC-62 melanoma
  TGI: > 100000 nM
U251 CNS
  TGI: > 100000 nM
IGROV1 ovarian
  TGI: > 100000 nM
OVCAR-5 ovarian
  TGI: > 100000 nM
HT29 colon
  TGI: > 100000 nM
HCT-15 colon
  TGI: > 100000 nM
M14 melanoma
  TGI: > 100000 nM
TK-10 renal
  TGI: > 100000 nM
OVCAR-3 ovarian
  TGI: > 100000 nM
MCF7 breast
  TGI: > 100000 nM
SW-620 colon
  TGI: > 100000 nM
NCI-H522 lung
  TGI: > 100000 nM
HCT-116 colon
  TGI: > 100000 nM
SK-OV-3 ovarian
  TGI: > 100000 nM
CAKI-1 renal
  TGI: > 100000 nM
A549 NSCLC
  TGI: > 100000 nM
MDA-MB-231 breast
  TGI: > 100000 nM

## CCN=C1C=CC(=C(c2ccc(N(CC)CC)cc2)c2ccc(N(CC)CC)cc2)c2ccccc21
SK-MEL-2 melanoma
  GI50: 76.8 nM
  TGI: 383 nM
ACHN renal
  GI50: 194 nM
  TGI: 1070 nM
NCI-H226 lung
  GI50: 64 nM
  TGI: 1610 nM
SNB-75 CNS
  GI50: 30.4 nM
  TGI: 879 nM
DU-145 prostate
  GI50: 49.2 nM
  TGI: 1370 nM
CCRF-CEM leukemia
  GI50: 47.1 nM
  TGI: 1520 nM
SNB-19 CNS
  GI50: 50.4 nM
  TGI: 1470 nM
EKVX NSCLC
  GI50: 37.8 nM
  TGI: 1180 nM
A498 renal
  GI50: 69.2 nM
  TGI: 444 nM
HOP-92 NSCLC
  GI50: 17.5 nM
  TGI: 92.2 nM
SK-MEL-5 melanoma
  GI50: 36.3 nM
  TGI: 133 nM
MDA-MB-435
  GI50: 73.3 nM
  TGI: 428 nM
UACC-257 melanoma
  GI50: 77 nM
  TGI: 1180 nM
HS 578T breast
  GI50: 40.8 nM
  TGI: 533 nM
RPMI-8226 leukemia
  GI50: 23.3 nM
  TGI: 70.2 nM
NCI/ADR-RES ovarian
  GI50: 350 nM
  TGI: 2110 nM
HOP-62 NSCLC
  GI50: 159 nM
  TGI: 846 nM
BT-549 breast
  GI50: 107 nM
  TGI: 602 nM
UACC-62 melanoma
  GI50: 98.3 nM
  TGI: 1110 nM
U251 CNS
  GI50: 34.8 nM
  TGI: 1110 nM
OVCAR-5 ovarian
  GI50: 294 nM
  TGI: 1230 nM
HT29 colon
  GI50: 33 nM
  TGI: 1010 nM
HCT-15 colon
  GI50: 299 nM
  TGI: 1210 nM
M14 melanoma
  GI50: 184 nM
  TGI: 1220 nM
TK-10 renal
  GI50: 42.2 nM
  TGI: 1130 nM
RXF 393 renal
  GI50: 58.5 nM
  TGI: 384 nM
SK-OV-3 ovarian
  GI50: 82.3 nM
  TGI: 601 nM
CAKI-1 renal
  GI50: 33.5 nM
  TGI: 273 nM
